Here are results for twelve compounds from article PMC5959751 (Biochemical pharmacology, 2018).

As a reminder, the Ki is the dissociation constant of the complex between target and ligand, obtained from inhibition or displacement. In general, pKi refers to the Ki on a negative log10 scale, so that one unit is a factor of ten. By Kd is commonly meant the concentration at which binding is half-saturated.

Assay [1] concerns the target T1, hA3 receptor (Homo sapiens, UniProt P0DMS8).
T1 sequence (P0DMS8 1-318): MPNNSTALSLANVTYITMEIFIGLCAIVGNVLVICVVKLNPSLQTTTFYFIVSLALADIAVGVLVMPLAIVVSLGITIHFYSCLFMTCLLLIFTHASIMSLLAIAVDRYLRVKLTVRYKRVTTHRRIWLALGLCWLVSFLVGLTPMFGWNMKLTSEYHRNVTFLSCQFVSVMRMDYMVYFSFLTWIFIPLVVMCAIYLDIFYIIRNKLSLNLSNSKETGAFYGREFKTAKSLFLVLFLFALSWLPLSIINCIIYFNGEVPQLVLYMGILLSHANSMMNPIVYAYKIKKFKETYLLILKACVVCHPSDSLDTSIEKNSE
As to the kind of experiment: Radioligand equilibrium displacement assay with [3H]PSB-11 on CHOhA3 membranes. Type of assay: binding. Particulars: no GTP; for Ki / pKi: 10 °C, 240 min, [3H]PSB-11, CHO cell membranes; for pKi: ± SEM.

In assay [2] the target is T1, hA3 receptor. The experiment in a line: Competition association assay with [3H]PSB-11. Particulars: no GTP; for koff / kon: 10 °C, ± SEM; for RT (residence time): RT = 1/(60*koff); for mean pKD (kinetic): from KD = koff/kon; for Kd: read-out: Kinetic KD, KD = koff/kon. Type of assay: binding.
Another assay relates to pain models. Particulars: five-day period; daily injection or implanted mini-pump; rat; cited from earlier work.
Assay [3] has as its target T1, hA3 receptor. As to the kind of experiment: Dual-point competition association assay with [3H]PSB-11. Type of assay: binding. As to conditions: no GTP; t1 20 min, t2 240 min; agonist at IC50; 10 °C.

SMILES strings stand for the structures. “And” between values parts separate entries of the source, which are not always exact repeats. Equal entries are not always repeated. Where two headings read alike, the source gives them in different places.

Consider `CNC(=O)[C@@]12C[C@@H]1[C@@H](n1cnc3c(NCc4cccc(Cl)c4)nc(C#Cc4ccc(-c5ccccc5)cc4)nc31)[C@H](O)[C@@H]2O` [MRS5679], for which, at hA3 receptor [1] (mean Ki), the affinity, expressed as Ki, was 82 nM. The koff entry at hA3 receptor [2] is recorded as “very slow”.
Regarding `CNC(=O)[C@@]12C[C@@H]1[C@@H](n1cnc3c(NCc4cccc(Cl)c4)nc(C#Cc4ccc(F)c(F)c4)nc31)[C@H](O)[C@@H]2O` [MRS5698], in the assay with pain models, the “efficacy on prolonged exposure in in vivo pain models” value is “maintained full efficacy”.
In the case of `OC[C@H]1O[C@@H](n2cnc3c(Nc4ccc(I)cc4)ncnc32)[C@H](O)[C@@H]1O` [LUF5506], at hA3 receptor [1], the pKi came out at 7.6 ± 0.08. Besides, the Ki at hA3 receptor [1] (read-out: mean Ki) is 29 nM.
As for `CNC(=O)[C@@]12C[C@@H]1[C@@H](n1cnc3c(NC)cc(C#Cc4ccc(Cl)s4)nc31)[C@H](O)[C@@H]2O` [MRS7140], on hA3 receptor [1], the pKi was determined as 8.3 ± 0.08. In addition, the Ki at hA3 receptor [1] (read-out: mean Ki) was 5.2 nM. At hA3 receptor [2], the koff result was “(8.5 ± 0.3) × 10^-5 s^-1”, the kon entry is “(3.2 ± 1.2) × 10^5 M^-1 s^-1”, the “RT (residence time)” value amounted to 196 ± 8 min and the “mean pKD (kinetic)” value worked out at 9.6. Also, at hA3 receptor [2], the Kd was 0.27 ± 0.1 nM.
Take `CNC(=O)C12CC1C(n1cnc3c(NCc4cccc(Cl)c4)nc(C#Cc4ccccc4)nc31)C(O)C2O` (stereo not shown) [MRS5655]: the pKi at hA3 receptor [1] is on record as 8.5 ± 0.09. For the same compound, on hA3 receptor [1] (read-out: mean Ki), the Ki is 3.6 nM. Also, on hA3 receptor [2], the koff result is recorded as “(1.8 ± 0.3) × 10^-5 s^-1”, the kon result was “(4.0 ± 0.8) × 10^5 M^-1 s^-1”, the “RT (residence time)” value was determined as 909 ± 165 min and the “mean pKD (kinetic)” value came out at 10.3. Further, at hA3 receptor [2], the dissociation constant (Kd) worked out at 0.046 ± 0.013 nM.
In turn, `OC[C@H]1O[C@@H](n2cnc3c(Nc4cccc(Cl)c4)ncnc32)[C@H](O)[C@@H]1O` [LUF5501] yielded a pKi at hA3 receptor [1] of 7.5 ± 0.02. In addition, the inhibitory constant (Ki) at hA3 receptor [1] (read-out: mean Ki) was 31 nM. Also, at hA3 receptor [2], the koff entry is “(1.6 ± 0.2) × 10^-3 s^-1”, the kon entry was “(1.7 ± 0.2) × 10^5 M^-1 s^-1”, the “RT (residence time)” value was 10 ± 1.3 min and the “mean pKD (kinetic)” value was 8.0. Moreover, on hA3 receptor [2], the Kd worked out at 9.2 ± 1.4 nM. On hA3 receptor [2] (pKD higher than pKi), the “difference between kinetic pKD and pKi” value is recorded as 0.5 log-unit.
Consider `CNC(=O)[C@H]1O[C@@H](n2cnc3c(NCc4cccc(I)c4)ncnc32)[C@H](O)[C@@H]1O` [IB-MECA, 1-deoxy-1-[6-[((3-Iodophenyl)methyl)amino]-9H-purin-9-yl]-N-methyl-β-D-ribofuranuronamide, reference compound], for which, at hA3 receptor [1] (displacement curves), the “Hill Slope” value is given as -0.94 ± 0.05 ^ns.
With `OC[C@H]1O[C@@H](n2cnc3c(Nc4ccc(Cl)cc4)ncnc32)[C@H](O)[C@@H]1O` [LUF5500], the pKi on hA3 receptor [1] was 7.3 ± 0.03. The Ki on hA3 receptor [1] (read-out: mean Ki) was 51 nM. Further, the “KRI (Kinetic Rate Index)” value on hA3 receptor [3] is listed as 0.98 (0.95; 1.01).
On to `CNC(=O)C12CC1C(n1cnc3c(N(C)C)nc(C#Cc4ccc(Cl)s4)nc31)C(O)C2O` (stereo not shown) [MRS7158], for which the Ki on hA3 receptor [1] (read-out: mean Ki) was found to be 618 nM.
As to `CNC(=O)[C@H]1O[C@@H](n2cnc3c(N)ncnc32)[C@H](O)[C@@H]1O` [MECA, 5′-N-methylcarboxamidoadenosine, reference compound], the pKi on hA3 receptor [1] worked out at 7.4 ± 0.04. On hA3 receptor [1] (read-out: mean Ki), the inhibition constant Ki was 42 nM. Also, the “KRI (Kinetic Rate Index)” value on hA3 receptor [3] was 1.24 and 1.24 ± 0.09.
Consider `CCCNc1nc(C#Cc2ccc(Cl)s2)nc2c1ncn2[C@H]1[C@H](O)[C@H](O)[C@]2(C(=O)NC)C[C@H]12` [MRS7154], for which the pKi at hA3 receptor [1] is 8.7 ± 0.06. Further, on hA3 receptor [1] (read-out: mean Ki), the inhibitory constant (Ki) is 2.2 nM. On hA3 receptor [2], the koff entry was “(6.2 ± 1.2) × 10^-5 s^-1”, the kon result was “(4.0 ± 0.7) × 10^5 M^-1 s^-1”, the “RT (residence time)” value amounted to 270 ± 51 min and the “mean pKD (kinetic)” value is 9.8. The equilibrium dissociation constant (Kd) at hA3 receptor [2] was found to be 0.15 ± 0.04 nM.
`CNC(=O)C12CC1C(n1cnc3c(NC)nc(C#Cc4ccc(-c5ccccc5)cc4)nc31)C(O)C2O` (stereo not shown) [MRS5667]: the negative-log Ki (pKi) at hA3 receptor [1] came to 8.3 ± 0.05. Besides, on hA3 receptor [1] (read-out: mean Ki), the inhibition constant Ki was 4.6 nM. Besides, at hA3 receptor [2], the koff result is reported as “(1.1 ± 0.3) × 10^-5 s^-1”, the kon result is reported as “(1.8 ± 0.3) × 10^5 M^-1 s^-1”, the “RT (residence time)” value is 1563 ± 464 min and the “mean pKD (kinetic)” value is given as 10.2. In addition, the equilibrium dissociation constant (Kd) at hA3 receptor [2] is 0.058 ± 0.02 nM.
